Among the data in patent US12208088B2 (Genentech, Inc., priority 2018, dated 2025) are Ki values, retold here.

HPK1, sequence (Q92918 1-346 limits assumed): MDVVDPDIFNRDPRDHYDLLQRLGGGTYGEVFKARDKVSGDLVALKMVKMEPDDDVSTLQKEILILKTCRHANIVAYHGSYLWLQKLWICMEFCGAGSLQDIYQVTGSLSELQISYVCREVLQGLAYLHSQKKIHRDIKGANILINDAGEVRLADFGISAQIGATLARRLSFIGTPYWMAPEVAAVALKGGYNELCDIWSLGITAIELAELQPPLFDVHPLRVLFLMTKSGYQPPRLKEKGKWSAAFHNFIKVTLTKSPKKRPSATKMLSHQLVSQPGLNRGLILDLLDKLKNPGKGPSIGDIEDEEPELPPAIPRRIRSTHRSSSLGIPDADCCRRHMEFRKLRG

The target of this test is HPK1 (Homo sapiens (Human), UniProt Q92918). As to the kind of experiment: HPK1 Lantha binding assay ("Lanth"). The conditions noted are these: binding assays; Morrison Ki fit. How it is done:
Example B2: HPK1 Lantha Binding Assay (“Lanth”)
Procedure: I. Compound Dilution:
The compounds to be tested were diluted by preparing 12.5 uL/well of 5 mM compound (100×) in columns 2 and 13 and 10 ul/well of DMSO in columns 3-12, 14-23, and wells A1-H1 and I24-P24 of the compound plate using a Bravo liquid handling platform. For the reference compound, the top concentration was 1 mM. To the plate was added 10 ul 2 mM staurosporine in wells J1-P1 and A24-H24. A 11 point 5-fold compound serial dilution was performed using the Bravo liquid handling platform. From the plate were transferred 2.5 ul of the solutions from column 2 and column 13 to the 10 ul of DMSO in columns 3 and 14 & so on. The compound plate was centrifuged at 2500 rpm for 1 min. From the compound plate was transferred 80 nl of the compounds into an assay plate using the Echo liquid handler system. One compound plate makes two assay plates. Each assay plate is sealed and stored in an N2 cabinet.
The following assay concentrations and times were used: 2 nM HPK1, 2 nM Eu-Anti-GST Ab, and 15 nM Tracer222, with 60 min incubation time.
III. HPK Lantha Binding Assay:
For the binding assay, 4 ul 2×HPK1 and Eu-anti-GST antibody were added to each well of the assay plate using a Multidrop reagent dispenser. The solutions were incubated in a 23 C incubator for 1 h. To each well of the assay plate was added 4 ul 2× Tracer-222 using a Multidrop reagent dispenser. The solutions were again incubated in a 23 C incubator for 1 h. The results of the assay were read using an Envision plate reader with the following parameters: TR_FRET, 340 ex/615 and 665em; 100 usec Delay; and 200 usec integration.
Compound Ki was analyzed using Morrison ki fit model in XL-fit • a. fit=(1−((((E+x)+(Ki*(1+(S/Kd))))−(((((E+x)+(Ki*(1+(S/Kd))))^2)−((4*E)*x))^0.5))/(2*E))) • res=(y−fit) • b. Parameters: • E=enzyme concentration • S=Tracer222 concentration, Kd=Tracer222 Kd • All measurements reported using the same units (uM)
Exemplary compounds were tested in the binding assays.
“1-(3-(1′,2′-Dihydrospiro[cyclopropane-1,3′-pyrrolo[2,3-b]pyridin]-5′-yl)phenyl)piperazin-2-one [Compound 41]” gave a Ki of 103 nM.
For `O=C1NCCC1c1nc2ccc(-c3cnc4c(c3Cl)C3(CC3)CN4)cc2[nH]1` (racemic) [Compound 283, (±)-3-(6-(4′-Chloro-1′,2′-dihydrospiro[cyclopropane-1,3′-pyrrolo[2,3-b]pyridin]-5′-yl)-1H-benzo[d]imidazol-2-yl)pyrrolidin-2-one] the value was 74.2 nM; for `CO[C@@H]1CC[C@@]2(CNc3ncc(-c4ccc(N)c(C(=O)N(C)C)c4F)c(Cl)c32)C1` (relative stereo) [Compound 81a, 6-Amino-3-((1R,3R)-4′-chloro-3-methoxy-1′,2′-dihydrospiro[cyclopentane-1,3′-pyrrolo[2,3-b]pyridin]-5′-yl)-2-fluoro-N,N-dimethylbenzamide], 39.6 nM; for `CO[C@H]1CC[C@@]2(CNc3ncc(-c4ccc(N)c(C(=O)N(C)C)c4F)c(Cl)c32)C1` (relative stereo) [Compound 81c, 6-Amino-3-((1R,3S)-4′-chloro-3-methoxy-1′,2′-dihydrospiro[cyclopentane-1,3′-pyrrolo[2,3-b]pyridin]-5′-yl)-2-fluoro-N,N-dimethylbenzamide], 17.7 nM.
Under `CN(C)C(=O)c1c(N)ccc(-c2cnc3c(c2Cl)[C@]2(CC[C@](C)(O)C2)CN3)c1F` (relative stereo) [Compound 82a, 6-Amino-3-((1R,3S)-4′-chloro-3-hydroxy-3-methyl-1′,2′-dihydrospiro[cyclopentane-1,3′-pyrrolo[2,3-b]pyridin]-5′-yl)-2-fluoro-N,N-dimethylbenzamide] stands 8.12 nM.
`CN(C)C(=O)c1c(N)ccc(-c2cnc3c(c2Cl)[C@]2(CC[C@@H](C(N)=O)C2)CN3)c1F` (relative stereo) [Compound 84a, (1R,3R)-5′-(4-amino-3-(dimethylcarbamoyl)-2-fluorophenyl)-4′-chloro-1′,2′-dihydrospiro[cyclopentane-1,3′-pyrrolo[2,3-b]pyridine]-3-carboxamide] displayed a Ki of 25.9 nM.
Under `CN(C)C(=O)c1c(N)ccc(-c2cnc3c(c2Cl)[C@]2(CC[C@H](C(N)=O)C2)CN3)c1F` (relative stereo) [Compound 84c, (1R,3S)-5′-(4-amino-3-(dimethylcarbamoyl)-2-fluorophenyl)-4′-chloro-1′,2′-dihydrospiro[cyclopentane-1,3′-pyrrolo[2,3-b]pyridine]-3-carboxamide] stands 2.07 nM; under `C[C@H]1C[C@@]12CNc1ncc(-c3ccc(N)c(C(=O)N(C)C)c3F)cc12` (relative stereo) [Compound 86a, 6-Amino-2-fluoro-N,N-dimethyl-3-((1R,2S)-2-methyl-1′,2′-dihydrospiro[cyclopropane-1,3′-pyrrolo[2,3-b]pyridin]-5′-yl)benzamide], 7.9 nM; under `CN(C)C(=O)c1c(N)ccc(-c2cnc3c(c2Cl)[C@]2(CC[C@H](n4nccn4)C2)CN3)c1F` (relative stereo) [Compound 89a, 6-Amino-3-((1R,3S)-4′-chloro-3-(2H-1,2,3-triazol-2-yl)-1′,2′-dihydrospiro[cyclopentane-1,3′-pyrrolo[2,3-b]pyridin]-5′-yl)-2-fluoro-N,N-dimethylbenzamide], 6 nM.
In turn, `CN(C)C(=O)c1c(N)ccc(-c2cnc3c(c2Cl)[C@]2(CC[C@H](C#N)C2)CN3)c1F` (relative stereo) [Compound 91a, 6-Amino-3-((1R,3S)-4′-chloro-3-cyano-1′,2′-dihydrospiro[cyclopentane-1,3′-pyrrolo[2,3-b]pyridin]-5′-yl)-2-fluoro-N,N-dimethylbenzamide] came in with a Ki of 5.53 nM.
Under `CNC(=O)[C@H]1CC[C@@]2(CNc3ncc(-c4ccc(N)c(C(=O)N(C)C)c4F)c(Cl)c32)C1` (relative stereo) [Compound 98a, (1R,3S)-5′-(4-Amino-3-(dimethylcarbamoyl)-2-fluorophenyl)-4′-chloro-N-methyl-1′,2′-dihydrospiro[cyclopentane-1,3′-pyrrolo[2,3-b]pyridine]-3-carboxamide] stands 75.6 nM; under `CN(C)C(=O)c1c(N)ccc(-c2cnc3c(c2Cl)[C@]2(CC[C@H](C(=O)NCCO)C2)CN3)c1F` (relative stereo) [Compound 106a, (1R,3S)-5′-(4-Amino-3-(dimethylcarbamoyl)-2-fluorophenyl)-4′-chloro-N-(2-hydroxyethyl)-1′,2′-dihydrospiro[cyclopentane-1,3′-pyrrolo[2,3-b]pyridine]-3-carboxamide], 23.6 nM; under `Cc1noc([C@H]2CC[C@@]3(CNc4ncc(-c5ccc(N)c(C(=O)N(C)C)c5F)c(Cl)c43)C2)n1` (relative stereo) [Compound 108a, 6-Amino-3-((1R,3S)-4′-chloro-3-(3-methyl-1,2,4-oxadiazol-5-yl)-1′,2′-dihydrospiro[cyclopentane-1,3′-pyrrolo[2,3-b]pyridin]-5′-yl)-2-fluoro-N,N-dimethylbenzamide], 8.27 nM.
Under `CN(C)C(=O)c1c(N)ccc(-c2cnc3c(c2Cl)[C@]2(CC[C@@](O)(CC#N)C2)CN3)c1F` (relative stereo) [Compound 109c, 6-Amino-3-((1R,3S)-4′-chloro-3-(cyanomethyl)-3-hydroxy-1′,2′-dihydrospiro[cyclopentane-1,3′-pyrrolo[2,3-b]pyridin]-5′-yl)-2-fluoro-N,N-dimethylbenzamide] stands 32.5 nM; under `Cc1cnn([C@H]2CC[C@@]3(CNc4ncc(-c5ccc(N)c(C(=O)N(C)C)c5F)c(Cl)c43)C2)n1` (relative stereo) [Compound 114a, 6-Amino-3-((1R,3S)-4′-chloro-3-(4-methyl-2H-1,2,3-triazol-2-yl)-1′,2′-dihydrospiro[cyclopentane-1,3′-pyrrolo[2,3-b]pyridin]-5′-yl)-2-fluoro-N,N-dimethylbenzamide], 2.84 nM.
For `CN(C)C(=O)c1c(N)ccc(-c2cnc3c(c2Cl)[C@]2(CC[C@H](N4CCNC4=O)C2)CN3)c1F` (relative stereo) [Compound 115a, 6-Amino-3-((1R,3S)-4′-chloro-3-(2-oxoimidazolidin-1-yl)-1′,2′-dihydrospiro[cyclopentane-1,3′-pyrrolo[2,3-b]pyridin]-5′-yl)-2-fluoro-N,N-dimethylbenzamide] the value was 23 nM; for `CN(C)C(=O)c1c(N)ccc(-c2cnc3c(c2Cl)[C@]2(CC[C@@](O)(Cn4cncn4)C2)CN3)c1F` (relative stereo) [Compound 116a], 153 nM; for `CN(C)C(=O)c1c(N)ccc(-c2cnc3c(c2Cl)[C@]2(CC[C@@](O)(Cn4ccnc4)C2)CN3)c1F` (relative stereo) [Compound 117a, 3-((1R,3S)-3-((1H-Imidazol-1-yl)methyl)-4′-chloro-3-hydroxy-1′,2′-dihydrospiro[cyclopentane-1,3′-pyrrolo[2,3-b]pyridin]-5′-yl)-6-amino-2-fluoro-N, N-dimethylbenzamide], 247 nM.
The compound `CN(C)C(=O)c1c(N)ccc(-c2cnc3c(c2Cl)[C@]2(CC[C@H](n4cnc(N)n4)C2)CN3)c1F` (relative stereo) [Compound 119a, 6-Amino-3-((1R,3S)-3-(3-amino-1H-1,2,4-triazol-1-yl)-4′-chloro-1′,2′-dihydrospiro[cyclopentane-1,3′-pyrrolo[2,3-b]pyridin]-5′-yl)-2-fluoro-N,N-dimethylbenzamide] had a Ki of 76.8 nM.
`CN(C)C(=O)c1c(N)ccc(-c2cnc3c(c2Cl)[C@]2(CC[C@H](N4CCOCC4)C2)CN3)c1F` (relative stereo) [Compound 120a, 6-Amino-3-((1R,3S)-4′-chloro-3-morpholino-1′,2′-dihydrospiro[cyclopentane-1,3′-pyrrolo[2,3-b]pyridin]-5′-yl)-2-fluoro-N,N-dimethylbenzamide] gave a Ki of 479 nM.
On to `CN(C)C(=O)c1c(N)ccc(-c2cnc3c(c2Cl)[C@]2(CC[C@H](N4CCCC4)C2)CN3)c1F` (relative stereo) [Compound 121a, 6-Amino-3-((1R,3S)-4′-chloro-3-(pyrrolidin-1-yl)-1′,2′-dihydrospiro[cyclopentane-1,3′-pyrrolo[2,3-b]pyridin]-5′-yl)-2-fluoro-N,N-dimethylbenzamide], for which the Ki is 381 nM.
Under `CN(C)C(=O)c1c(N)ccc(-c2cnc3c(c2Cl)[C@]2(CC[C@H](N4CCOC4=O)C2)CN3)c1F` (relative stereo) [Compound 124a, 6-Amino-3-((1R,3S)-4′-chloro-3-(2-oxooxazolidin-3-yl)-1′,2′-dihydrospiro[cyclopentane-1,3′-pyrrolo[2,3-b]pyridin]-5′-yl)-2-fluoro-N,N-dimethylbenzamide] stands 35 nM.

What is called Ki is a dissociation constant, usually derived from enzyme kinetics or from competition with a known ligand. A high value points to a looser hold on the target.
